Reference: ChEMBL document CHEMBL4130623, “Discovery of Highly Potent Pinanamine-Based Inhibitors against Amantadine- and Oseltamivir-Resistant Influenza A Viruses” (J Med Chem, 2018)

What was measured:
Experiment in all cases: microbe, parasite or virus in culture
Assay type in all cases: functional, organism-based
Conditions in all cases: A/Guangzhou/GIRD/07/2009 (H1N1), MDCK
Influenza A virus [1] = system: Influenza A virus
Influenza A virus [2] = system: Influenza A virus; remark: listed apart in the source
Influenza A virus [3] = system: Influenza A virus; remark: listed apart in the source
Influenza A virus [4] = system: Influenza A virus; remark: listed apart in the source
Influenza A virus [5] = system: Influenza A virus; remark: listed apart in the source
Influenza A virus [6] = system: Influenza A virus; remark: listed apart in the source
Influenza A virus [7] = system: Influenza A virus; remark: listed apart in the source
Influenza A virus [8] = system: Influenza A virus; remark: listed apart in the source
Influenza A virus [9] = system: Influenza A virus; remark: listed apart in the source

C[C@@H]1C2CC(C[C@H]1NCc1sccc1C1CC1)C2(C)C (single isomer, unassigned)
EC50 (Influenza A virus [1]): > 43 µM | EC50 (Influenza A virus [2]): 25.6 µM | EC50 (Influenza A virus [3]): 1.7 µM | EC50 (Influenza A virus [4]): 0.34 µM | EC50 (Influenza A virus [5]): 13.8 µM | EC50 (Influenza A virus [6]): > 43 µM | EC50 (Influenza A virus [7]): 0.32 µM | EC50 (Influenza A virus [8]): > 43 µM | EC50 (Influenza A virus [9]): 8.7 µM
